Data: US20250250230A1, “HETEROCYCLIC COMPOUND” (TAKEDA PHARMACEUTICAL COMPANY LIMITED, priority 2022, published 2025)

These compounds were tested against T1, human orexin type 2 receptor (Homo sapiens, UniProt O43614) (assay: Measurement of orexin type 2 receptor agonist activity (calcium fluorescence, Fluo-4 AM, FDSS)). Details: test compound 3 μM; CHO cells expressing human OX2 receptor; DMSO = 0%, orexin A (human) = 100%.
T1 construct: expressed in transfected cells
T1 sequence (O43614 1-444): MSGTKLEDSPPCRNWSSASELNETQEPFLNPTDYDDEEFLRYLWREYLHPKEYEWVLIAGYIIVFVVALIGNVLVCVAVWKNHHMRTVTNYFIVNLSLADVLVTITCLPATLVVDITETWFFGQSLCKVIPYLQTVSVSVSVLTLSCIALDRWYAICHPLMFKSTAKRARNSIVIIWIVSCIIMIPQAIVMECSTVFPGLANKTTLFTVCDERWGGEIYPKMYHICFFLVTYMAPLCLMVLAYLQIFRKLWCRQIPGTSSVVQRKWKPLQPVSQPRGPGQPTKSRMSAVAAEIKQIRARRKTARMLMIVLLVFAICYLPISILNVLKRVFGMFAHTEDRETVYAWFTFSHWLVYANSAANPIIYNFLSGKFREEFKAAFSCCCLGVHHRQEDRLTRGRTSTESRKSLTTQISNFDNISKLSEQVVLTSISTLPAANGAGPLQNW
Type: cell-based
Text: To obtain a cell clone stably expressing human orexin type 2 receptor, human orexin type 2 receptor cDNA was inserted into pcDNA3.1(+) plasmid vector (Invitrogen), and a plasmid DNA for expression of human orexin type 2 receptor (pcDNA3.1(+)/hOX2R) was cloned. The plasmid DNA was introduced into CHO-K1 cell by an electroporation method, and human orexin type 2 receptor expressing clone cells were obtained by limiting dilution method by using G418 drug resistance as a selection marker.
CHO cells forcibly expressing human OX2 receptor were seeded in each well of 384 well black transparent bottom plate (BD Falcon) at 10,000 cells/well, and cultured for one day in a 5% CO2 incubator at 37° C. After removal of the medium in the cell plate, assay buffer A containing a calcium indicator (HBSS (Thermo Fisher Scientific), 20 mM HEPES (Thermo Fisher Scientific), 0.1% BSA (Sigma-Aldrich), 2.5 μg/mL Fluo-4 AM (DOJINDO Chemical), 0.08% Pluronic F127 (DOJINDO Chemical), 1.25 mM probenecid (DOJINDO Chemical)) was added at 30 μL/well. The plate was stood for 30 min in a 5% CO2 incubator at 37° C., and further stood at room temperature for 30 min. A test compound prepared by diluting with assay buffer B (HBSS, 20 mM HEPES, 0.1% BSA) was added at 10 μL/well, and the fluorescence value was measured by FDSSμCELL (Hamamatsu Photonics K.K.) every one sec for 1 min, and thereafter every two sec for […]. The activity (%) of the test compound was calculated assuming that variation in the fluorescence value when DMSO was added instead of the test compound was 0%, and variation in the fluorescence value when orexin A (human) (PEPTIDE INSTITUTE, INC.) was added at the final concentration of 10 nM was 100%.

| SMILES | OX2R agonist activity (3 μM, %) |
| --- | --- |
| CS(=O)(=O)N[C@@H]1CCCCN(C(=O)C2CC2c2ccccc2-c2c(F)cccc2F)C1 (mixture of isomers) [Example 183, a mixture of N-{(3R)-1-[(1R,2R)-2-(2′,6′-difluoro[1,1′-biphenyl]-2-yl)cyclopropane-1-carbonyl]azepan-3-yl}methanesulfonamide and N-{(3R)-1-[(1S,2S)-2-(2′,6′-difluoro[1,1′-biphenyl]-2-yl)cyclopropane-1-carbonyl]azepan-3-yl}methanesulfonamide] | 78% |
| CS(=O)(=O)N[C@H]1CCCCN(C(=O)C2CC2c2ccccc2-c2c(F)cccc2F)C1 (mixture of isomers) [Example 184, a mixture of N-{(3S)-1-[(1R,2R)-2-(2′,6′-difluoro[1,1′-biphenyl]-2-yl)cyclopropane-1-carbonyl]azepan-3-yl}methanesulfonamide and N-{(3S)-1-[(1S,2S)-2-(2′,6′-difluoro[1,1′-biphenyl]-2-yl)cyclopropane-1-carbonyl]azepan-3-yl}methanesulfonamide] | 108% |
| CS(=O)(=O)N[C@H]1CCN(C(=O)C2CC2c2cccc(F)c2-c2c(F)cccc2F)C1 (mixture of isomers) [Example 192, a mixture of N-{(3S)-1-[(1R,2R)-2-(2′,6,6′-trifluoro[1,1′-biphenyl]-2-yl)cyclopropane-1-carbonyl]pyrrolidin-3-yl}methanesulfonamide and N-{(3S)-1-[(1S,2S)-2-(2′,6,6′-trifluoro[1,1′-biphenyl]-2-yl)cyclopropane-1-carbonyl]pyrrolidin-3-yl}methanesulfonamide] | 95% |
| CS(=O)(=O)N[C@H]1CCCN(C(=O)C2CC2c2cccc(F)c2-c2c(F)cccc2F)C1 (mixture of isomers) [Example 193, a mixture of N-{(3S)-1-[(1R,2R)-2-(2′,6,6′-trifluoro[1,1′-biphenyl]-2-yl)cyclopropane-1-carbonyl]piperidin-3-yl}methanesulfonamide and N-{(3S)-1-[(1S,2S)-2-(2′,6,6′-trifluoro[1,1′-biphenyl]-2-yl)cyclopropane-1-carbonyl]piperidin-3-yl}methanesulfonamide] | 98% |
| CS(=O)(=O)N[C@H]1CCCN(C(=O)C2CC2c2cccc(F)c2-c2c(F)cccc2F)CC1 (mixture of isomers) [Example 194, a mixture of N-{(4S)-1-[(1R,2R)-2-(2′,6,6′-trifluoro[1,1′-biphenyl]-2-yl)cyclopropane-1-carbonyl]azepan-4-yl}methanesulfonamide and N-{(4S)-1-[(1S,2S)-2-(2′,6,6′-trifluoro[1,1′-biphenyl]-2-yl)cyclopropane-1-carbonyl]azepan-4-yl}methanesulfonamide] | 100% |
| CS(=O)(=O)N[C@H]1CCN(C(=O)C2CC2(F)c2ccccc2-c2c(F)cccc2F)C1 (mixture of isomers) [Example 198, a mixture of N-{(3S)-1-[(1R,2R)-2-(2′,6′-difluoro[1,1′-biphenyl]-2-yl)-2-fluorocyclopropane-1-carbonyl]pyrrolidin-3-yl}methanesulfonamide and N-{(3S)-1-[(1S,2S)-2-(2′,6′-difluoro[1,1′-biphenyl]-2-yl)-2-fluorocyclopropane-1-carbonyl]pyrrolidin-3-yl}methanesulfonamide] | 101% |
| CS(=O)(=O)N[C@H]1CCCN(C(=O)C2CC2(F)c2ccccc2-c2c(F)cccc2F)C1 (mixture of isomers) [Example 199, a mixture of N-{(3S)-1-[(1R,2R)-2-(2′,6′-difluoro[1,1′-biphenyl]-2-yl)-2-fluorocyclopropane-1-carbonyl]piperidin-3-yl}methanesulfonamide and N-{(3S)-1-[(1S,2S)-2-(2′,6′-difluoro[1,1′-biphenyl]-2-yl)-2-fluorocyclopropane-1-carbonyl]piperidin-3-yl}methanesulfonamide] | 104% |
| O=C(C1CC1c1ccccc1-c1c(F)cccc1F)N1CCC[C@H](NS(=O)(=O)CF)C1 (mixture of isomers) [Example 207, a mixture of N-{(3S)-1-[(1R,2R)-2-(2′,6′-difluoro[1,1′-biphenyl]-2-yl)cyclopropane-1-carbonyl]piperidin-3-yl}-1-fluoromethanesulfonamide and N-{(3S)-1-[(1S,2S)-2-(2′,6′-difluoro[1,1′-biphenyl]-2-yl)cyclopropane-1-carbonyl]piperidin-3-yl}-1-fluoromethanesulfonamide] | 101% |
| O=C(C1CC1c1ccccc1-c1c(F)cccc1F)N1CCC[C@H](NS(=O)(=O)CBr)C1 (mixture of isomers) [Example 213, a mixture of 1-bromo-N-{(3S)-1-[(1R,2R)-2-(2′,6′-difluoro[1,1′-biphenyl]-2-yl)cyclopropane-1-carbonyl]piperidin-3-yl}methanesulfonamide and 1-bromo-N-{(3S)-1-[(1S,2S)-2-(2′,6′-difluoro[1,1′-biphenyl]-2-yl)cyclopropane-1-carbonyl]piperidin-3-yl}methanesulfonamide] | 100% |
| COCS(=O)(=O)N[C@H]1CCCN(C(=O)C2CC2c2ccccc2-c2c(F)cccc2F)C1 (mixture of isomers) [Example 214, a mixture of N-{(3S)-1-[(1R,2R)-2-(2′,6′-difluoro[1,1′-biphenyl]-2-yl)cyclopropane-1-carbonyl]piperidin-3-yl}-1-methoxymethanesulfonamide and N-{(3S)-1-[(1S,2S)-2-(2′,6′-difluoro[1,1′-biphenyl]-2-yl)cyclopropane-1-carbonyl]piperidin-3-yl}-1-methoxymethanesulfonamide] | 95% |
| COCS(=O)(=O)NC1CCN(C(=O)C2CC2c2ccccc2-c2c(F)cccc2F)C1 (mixture of isomers) [Example 227, a mixture of N-{(3S)-1-[(1R,2R)-2-(2′,6′-difluoro[1,1′-biphenyl]-2-yl)cyclopropane-1-carbonyl]pyrrolidin-3-yl}-1-methoxymethanesulfonamide and N-{(3S)-1-[(1S,2S)-2-(2′,6′-difluoro[1,1′-biphenyl]-2-yl)cyclopropane-1-carbonyl]pyrrolidin-3-yl}-1-methoxymethanesulfonamide] | 85% |
| CS(=O)(=O)NC1CCCN(C(=O)C2CC2c2ccccc2-c2ncccc2F)CC1 (mixture of isomers) [Example 256, a mixture of N-[(4S)-1-{(1R,2R)-2-[2-(3-fluoropyridin-2-yl)phenyl]cyclopropane-1-carbonyl}azepan-4-yl]methanesulfonamide and N-[(4S)-1-{(1S,2S)-2-[2-(3-fluoropyridin-2-yl)phenyl]cyclopropane-1-carbonyl}azepan-4-yl]methanesulfonamide] | 52% |
| CCS(=O)(=O)NC1COCCN(C(=O)[C@@H]2C[C@H]2c2ccccc2-c2c(F)cccc2F)C1 (mixture of isomers) [Example 257] | 98% |
| CC1[C@@H](NS(C)(=O)=O)CCN1C(=O)[C@@H]1C[C@H]1c1ccccc1-c1c(F)cccc1F (mixture of isomers) [Example 261, a mixture of N-{(2R,3R)-1-[(1R,2R)-2-(2′,6′-difluoro[1,1′-biphenyl]-2-yl)cyclopropane-1-carbonyl]-2-methylpyrrolidin-3-yl}methanesulfonamide and N-{(2S,3S)-1-[(1R,2R)-2-(2′,6′-difluoro[1,1′-biphenyl]-2-yl)cyclopropane-1-carbonyl]-2-methylpyrrolidin-3-yl}methanesulfonamide] | 88% |
| C[C@]1(NS(C)(=O)=O)CCN(C(=O)[C@@H]2C[C@H]2c2ccccc2-c2c(F)cccc2F)C1 (mixture of isomers) [Example 286, a mixture of N-{(3R)-1-[(1R,2R)-2-(2′,6′-difluoro[1,1′-biphenyl]-2-yl)cyclopropane-1-carbonyl]-3-methylpyrrolidin-3-yl}methanesulfonamide and N-{(3S)-1-[(1R,2R)-2-(2′,6′-difluoro[1,1′-biphenyl]-2-yl)cyclopropane-1-carbonyl]-3-methylpyrrolidin-3-yl}methanesulfonamide] | 96% |
